Publication PMC8042605 (The Journal of General Physiology, 2021)

Key:
Assay in all cases: whole-cell patch clamp in transfected CHOK1 cells
Assay type in all cases: cell-based
Nav1.4 [1] = molecular target: Nav1.4 (Homo sapiens, UniProt P35499, F1586A)
Nav1.4 [2] = molecular target: Nav1.4 (Homo sapiens, UniProt P35499, F432W/I1280W/I1583W/V787W)
Nav1.4 [3] = molecular target: T1, Nav1.4 (Homo sapiens, UniProt P35499); settings: CHO-K1, read-out: % block at 1.1 mM
Nav1.4 [4] = molecular target: T1, Nav1.4; settings: CHO-K1, read-out: % block at 350 μM
[5] = CHO-K1, read-out: % block at 1.1 mM

Sequence of Nav1.4 (Homo sapiens, UniProt P35499, F432W/I1280W/I1583W/V787W) (P35499 whole entry F432W/V787W/I1280W/I1583W): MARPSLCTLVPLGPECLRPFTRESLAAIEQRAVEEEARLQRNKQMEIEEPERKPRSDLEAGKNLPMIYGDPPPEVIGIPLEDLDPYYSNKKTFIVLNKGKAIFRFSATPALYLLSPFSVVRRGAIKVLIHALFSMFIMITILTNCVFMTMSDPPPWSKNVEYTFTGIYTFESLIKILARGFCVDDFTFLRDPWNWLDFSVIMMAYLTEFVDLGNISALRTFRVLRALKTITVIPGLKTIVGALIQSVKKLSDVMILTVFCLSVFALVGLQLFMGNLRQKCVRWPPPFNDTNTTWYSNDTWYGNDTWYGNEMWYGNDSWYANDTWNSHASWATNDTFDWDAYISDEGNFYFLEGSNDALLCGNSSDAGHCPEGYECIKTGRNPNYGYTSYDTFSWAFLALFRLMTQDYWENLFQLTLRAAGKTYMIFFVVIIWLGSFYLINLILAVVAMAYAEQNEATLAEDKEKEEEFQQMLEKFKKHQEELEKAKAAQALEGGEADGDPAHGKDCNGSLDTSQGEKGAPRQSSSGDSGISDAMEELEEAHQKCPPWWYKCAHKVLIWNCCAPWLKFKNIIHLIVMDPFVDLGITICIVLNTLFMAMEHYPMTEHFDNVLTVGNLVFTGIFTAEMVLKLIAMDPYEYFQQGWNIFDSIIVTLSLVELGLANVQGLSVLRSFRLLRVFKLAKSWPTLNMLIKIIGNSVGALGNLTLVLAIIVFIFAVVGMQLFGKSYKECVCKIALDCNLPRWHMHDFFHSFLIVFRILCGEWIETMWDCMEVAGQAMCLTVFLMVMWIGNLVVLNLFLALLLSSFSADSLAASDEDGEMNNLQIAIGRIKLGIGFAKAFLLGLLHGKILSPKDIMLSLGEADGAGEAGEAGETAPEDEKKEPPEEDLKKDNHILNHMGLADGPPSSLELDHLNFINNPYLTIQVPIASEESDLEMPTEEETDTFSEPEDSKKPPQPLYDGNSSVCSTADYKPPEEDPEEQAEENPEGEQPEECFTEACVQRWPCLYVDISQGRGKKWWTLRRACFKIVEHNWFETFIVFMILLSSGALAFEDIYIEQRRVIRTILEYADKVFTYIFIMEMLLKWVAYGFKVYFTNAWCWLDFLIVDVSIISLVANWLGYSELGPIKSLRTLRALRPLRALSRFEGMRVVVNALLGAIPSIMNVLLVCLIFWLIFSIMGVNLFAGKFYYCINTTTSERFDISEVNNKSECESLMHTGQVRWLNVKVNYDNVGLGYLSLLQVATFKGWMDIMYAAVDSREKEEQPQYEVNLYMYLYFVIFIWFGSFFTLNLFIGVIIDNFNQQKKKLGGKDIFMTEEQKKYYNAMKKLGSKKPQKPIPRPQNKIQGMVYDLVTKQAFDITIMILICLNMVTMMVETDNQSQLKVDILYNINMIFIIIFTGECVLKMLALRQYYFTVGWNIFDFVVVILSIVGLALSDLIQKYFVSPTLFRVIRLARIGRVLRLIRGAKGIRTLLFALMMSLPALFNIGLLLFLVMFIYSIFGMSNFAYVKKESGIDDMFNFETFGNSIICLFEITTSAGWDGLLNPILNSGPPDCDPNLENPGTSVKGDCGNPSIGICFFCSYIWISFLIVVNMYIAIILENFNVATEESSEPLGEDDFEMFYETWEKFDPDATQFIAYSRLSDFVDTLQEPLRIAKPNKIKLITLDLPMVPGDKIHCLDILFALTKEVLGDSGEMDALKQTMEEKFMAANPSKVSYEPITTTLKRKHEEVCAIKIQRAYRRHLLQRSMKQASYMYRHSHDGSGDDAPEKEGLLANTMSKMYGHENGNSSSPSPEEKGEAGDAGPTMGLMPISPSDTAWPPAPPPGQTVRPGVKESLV
Sequence of Nav1.4 (Homo sapiens, UniProt P35499, F432W/I1280W/I1583W/V787W) (Q07699 19-218 partner): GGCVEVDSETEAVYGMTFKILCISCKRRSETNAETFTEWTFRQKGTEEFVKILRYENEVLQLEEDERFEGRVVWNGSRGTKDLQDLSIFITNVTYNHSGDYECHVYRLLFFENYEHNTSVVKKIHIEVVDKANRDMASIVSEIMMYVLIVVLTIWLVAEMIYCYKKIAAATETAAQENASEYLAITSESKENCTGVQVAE
T1 sequence (P35499 whole entry): as the sequence (P35499 whole entry F432W/V787W/I1280W/I1583W) above, with W432F, W787V, W1280I, W1583I counted along it
T1 sequence (Q07699 19-218 partner): as the sequence (Q07699 19-218 partner) above
Sequence of Nav1.4 (Homo sapiens, UniProt P35499, F1586A) (P35499 whole entry F1586A): as the sequence (P35499 whole entry F432W/V787W/I1280W/I1583W) above, with W432F, W787V, W1280I, W1583I, F1586A counted along it
Sequence of Nav1.4 (Homo sapiens, UniProt P35499, F1586A) (Q07699 19-218 partner): as the sequence (Q07699 19-218 partner) above

`C=C(C)[C@@H]1CCC(C)=C[C@H]1c1c(O)cc(CCCCC)cc1O` [Cannabidiol] gave an inhibition at 10 µM (Nav1.4 [1]; CHO-K1, read-out: % block at 10 μM) of 25.3%.
In the case of `CCN(CC)CC(=O)Nc1c(C)cccc1C` [lidocaine], the inhibition at 1100 µM (Nav1.4 [2]; [5]) is reported as 53.6%, the inhibition at 1100 µM (Nav1.4 [3]) is reported as 60.6% and the inhibition at 1100 µM (Nav1.4 [1]; [5]) is reported as 24.6%.
`O=C(NCC1CCCCN1)c1cc(OCC(F)(F)F)ccc1OCC(F)(F)F` (stereo not drawn) [flecainide] showed an inhibition at 350 µM (Nav1.4 [4]) of 64.6% and an inhibition at 350 µM (Nav1.4 [2]; CHO-K1, read-out: % block at 350 μM) of 76.4%.
